Source: US20190224187A1, “NEW USE OF ISOQUINOLINE DERIVATIVES FOR WOUND HEALING” (ZIH YUAN TANG Biotechnology Co., Ltd, priority 2018, published 2019)

Columns and labels:
[1] = tested on: excisional full-thickness square-shaped skin wound; experiment: Effect of salsolinol ointment on excisional full-thickness skin wound healing in guinea pigs; assay type: in vivo; conditions: for recover rate of wound vs vehicle control: another experiment; for wound recovery (wound images) vs vehicle controls: FIG. 3
Method: Salsolinol ointments at 0.01 mg/g, 0.03 mg/g and 0.1 mg/g were prepared respectively by dissolving 0.5 mg, 1.5 mg, and 5 mg of salsoinol in 2.5 mL of glycerol (Sigma Inc., MO, USA) plus 1.0 mL of Creagel emulsifier (First Chemical, TPE, Taiwan) and 45.5 mL of distilled water. Vehicle was composed of glycerol (2.5 mL), Creagel emulsifier (1.0 mL), and distilled water (45.5 mL).
Guinea pigs were purchased and were acclimatized at a room temperature, and had free access to water. All experimental procedures were approved by and performed in compliance with the guidelines of the Institutional Animal Care and Use Committee (IACUC). All surgeries were conducted while animals were under continuous anesthesia with 4% isoflurane.
The dorsal skin was shaved and then disinfected with 10% povidone-iodine before an excisional full-thickness square-shaped skin wound (1.0×1.0 cm) was induced using a sterile wound maker. Animals were then housed alone in its cage to avoid any further wound damage.
Animals were randomly divided into six groups (n=5 or 6, each group) as follows: • (1) animals treated with salsolinol at a concentration of 0.01 mg/g (C0.01, n=6); • (2) animal treated with the vehicle (V0.01) as compared with the group C0.01; • (3) animal treated with salsolinol at a concentration of 0.03 mg/g (C0.03, n=5); • (4) animal treated with the vehicle (V0.03) as compared with the group C0.03.
The groups were administered at the same amount of the salsolinol at 0.01 mg/g, and 0.03 mg/g or the vechile at the same amount once daily and the wounds were photopictured on Day 1, Day 3, Day 5, Day 7, Day 10, and Day 14. The sizes of the wounds were analyzed using Visual Basic 6.0. The rate of wound recovery at each experimental time point is calculated by the size of the wound as compared with that of the wound at D1, wherein the rate of wound recovery at Day 1 is 1.0.
In another experiment, the wounds of the guinea pigs were treated with salsolinol at a concentration of 0.001 mg/g, 0.01 mg/g or the vehicle at the same amount once daily and the wounds were photopictured on Day 1, Day 3, Day 5, Day 7, Day 10, and Day 14. The sizes of the wounds were analyzed using Visual Basic 6.0. The recovery rate of the wound at each experimental time point was calculated by the size of the wound as compared with that of the wound at D1, wherein the recover rate of wound at Day 1 is 0.0%.

[2] = tested on: AMP-dependent protein kinase (AMPK); conditions: U.S. Pat. No. 9,707,222; cited from earlier work
blood glucose = conditions: U.S. Pat. No. 9,707,222; cited from earlier work

| SMILES | recover rate of wound vs vehicle control ([1]; salsolinol 0.001 mg/g (C0.001) once daily, FIG. 4) | recover rate of wound vs vehicle control ([1]; salsolinol 0.01 mg/g (C0.01) once daily, after Day 3, p<0.05, FIG. 5) | wound healing (rate of wound recovery) vs vehicle control ([1]; salsolinol 0.01 mg/g (C0.01) once daily vs V0.01, Day 3, Day 5 and Day 7, p<0.01, FIG. 1) | wound recovery (wound images) vs vehicle controls ([1]; salsolinol 0.01 mg/g) | wound healing (rate of wound recovery) vs vehicle control ([1]; salsolinol 0.03 mg/g (C0.03) once daily vs V0.03, Day 3, p<0.05, FIG. 2) | wound recovery (wound images) vs vehicle controls ([1]; salsolinol 0.03 mg/g) | wound recovery (wound images) vs vehicle controls ([1]; salsolinol 0.1 mg/g) | wound recovery vs control groups (summary) ([1]; salsolinol at 0.001 mg/g to 0.03 mg/g, preferably 0.01 mg/g) | activation of AMPK [2] | efficacy in reducing blood glucose (blood glucose) |
| --- | --- | --- | --- | --- | --- | --- | --- | --- | --- | --- |
| CC1NCCc2cc(O)c(O)cc21 (stereo not drawn) [salsolinol] | better than that of the control group | significantly better | significantly better | better than the controls | significantly better | better than the controls | better than the controls | enhanced the wound recovery | can activate | has an efficacy in reducing blood glucose |
| COc1ccc(C[C@H]2c3cc(O)c(OC)cc3CCN2C)cc1O [reticuline, reference compound] |  |  |  |  |  |  |  |  | can activate | has an efficacy in reducing blood glucose |
